Series [1] can be described thus: Molar enthalpy of transition or fusion. The note with it: Crystal; DSC.
For series [2] the following is noted: Crystal; DTA.

± gives the expanded uncertainty stated by the source.

In the case of `COc1cc(CO)ccc1O` [4-hydroxy-3-methoxybenzyl alcohol], the “Molar enthalpy of transition or fusion” value in series [1] stood at 7.35 ± 0.335 kcal/mol. Further, the Normal melting temperature in series [2] was 116 ± 1.1 °C.

Source of the values: the NIST ThermoML archive (doi:10.1016/j.jct.2016.11.030).
